# Where two headings read alike, the source gives them in different places. Residues, ends and D or L forms follow the SMILES beside them. No end group written: not given here.
# Tests used:
# HLA-DQ2.5 [1] = target: HLA-DQ2.5 (Homo sapiens, UniProt P01909+P01920, A45G/A70V/D89A/E106A/E77G/E98D/H199R/L107V/N214S/P84L/P87L/T103K/T109R/T172A/T60S/V78E/V99I/Y58L/Y62S/Y69I/Y79F); assay: MHC II/peptide competition binding assay, HLA-DQ2.5
# Description: (§1) One skilled in the art would appreciate that the 15-mers used included shorter de-epitoped high molecular weight glutenin peptide sequences (mutated repeating antigenic units), as described throughout. For example, Table 2 provides a listing of 15-mers and the shorter mutated repeating antigenic units present therein. […] MHC II molecules were purified by affinity chromatography, and peptides were radiolabeled using the chloramine T method. After an incubation period, the bound and unbound radiolabeled species were separated, and their relative amounts were determined by either size-exclusion gel-filtration chromatography or monoclonal antibody capture of MHC. The percent of bound radioactivity was then determined.
# HLA-DQ7.5 = HLA-DQ7.5 (Homo sapiens, UniProt P01909+P01920); assay: MHC II/peptide competition binding assay, HLA-DQ7.5
# Description: The peptides were synthesized as purified material on the 2 mg scale with free acid C-termini (A&A labs, USA). One skilled in the art would appreciate that the 15-mers used included shorter de-epitoped high molecular weight glutenin peptide sequences (mutated repeating antigenic units), as described throughout. For example, Table 2 provides a listing of 15-mers and the shorter mutated repeating antigenic units present therein.
# Briefly, competition assays using different concentrations of wild-type (WT) and modified glutenin peptides were conducted by diluting the peptides in NP40 buffer, and incubation for 2-4 days with purified MHC II and a radiolabeled known MHC binding peptide (peptide probe). MHC II molecules were purified by affinity chromatography, and peptides were radiolabeled using the chloramine T method. After an incubation period, the bound and unbound radiolabeled species were separated, and their relative amounts were determined by either size-exclusion gel-filtration chromatography or monoclonal antibody capture of MHC. The percent of bound radioactivity was then determined.
# HLA-DQ8 = HLA-DQ8 (Homo sapiens, UniProt P01909+P01920, A209T/A45G/C70Q/D89A/DUP78-78/E183D/E77G/F237L/G63E/H199R/I129T/K197E/L178F/L74F/L98V/Q57E/Q76R/S185I/S97I/T217I/T49S/V73L/Y58L); assay: MHC II/peptide competition binding assay, HLA-DQ8
# Description: as §1
# HLA-DQ2.2 = HLA-DQ2.2 (Homo sapiens, UniProt P01909+P01920, A45G/A70V/C70K/D167G/D89A/E106A/E183D/E77G/E98D/F237L/F77L/G63E/H199R/I129T/K197E/L107V/L178F/L74F/N214S/P84L/P87L/Q57E/Q76R/R75H/S185I/S97I/T103K/T109R/T172A/T60S/V73L/V78E/V99I/Y48F/Y58L/Y62S/Y69I/Y79F); assay: MHC II/peptide competition binding assay, HLA-DQ2.2
# Description: as §1
# HLA-DQ2.5 [2] = assay: MHC II competition binding assay (purified MHC II, radiolabeled probe peptide as competitor)
# [3] = Table 3, 15-mer peptides, >40000 signifies binding is undetectable by assay
molecule,measurement,setting,value
C[C@H](NC(=O)CNC(=O)[C@@H](N)CCC(N)=O)C(=O)N[C@@H](C)C(=O)NCC(=O)N[C@@H](Cc1ccc(O)cc1)C(=O)N[C@@H](Cc1ccc(O)cc1)C(=O)N1CCC[C@H]1C(=O)N[C@H](C(=O)N[C@@H](CO)C(=O)N1CCC[C@H]1C(=O)N[C@@H](CCCNC(=N)N)C(=O)N[C@@H](CCC(N)=O)C(=O)N[C@@H](CO)C(=O)NCC(=O)O)[C@@H](C)O [P1c] (H-QGAAGYYPTSPRQSG-OH),IC50,HLA-DQ2.5 [1]; [3],> 40 µM
same,IC50,HLA-DQ7.5; [3],19.9 µM
same,IC50,HLA-DQ8; [3],> 40 µM
CC(C)C[C@H](NC(=O)[C@H](CO)NC(=O)[C@@H](NC(=O)[C@@H]1CCCN1C(=O)[C@H](CC(=O)O)NC(=O)[C@H](Cc1ccc(O)cc1)NC(=O)CNC(=O)[C@H](Cc1c[nH]cn1)NC(=O)[C@H](CCC(N)=O)NC(=O)CNC(=O)[C@@H](N)CCC(N)=O)[C@@H](C)O)C(=O)N[C@@H](CCC(=O)O)C(=O)N[C@@H](CCC(N)=O)C(=O)N[C@@H](CO)C(=O)NCC(=O)O [SEQ ID NO: 173] (H-QGQHGYDPTSLEQSG-OH; N-terminus assumed),IC50,HLA-DQ2.5 [1],15.9 µM
same,IC50,HLA-DQ8,> 40 µM
C[C@H](NC(=O)[C@@H]1CCCN1C(=O)CNC(=O)[C@H](Cc1c[nH]cn1)NC(=O)CNC(=O)[C@H](CCC(=O)O)NC(=O)[C@H](CCC(N)=O)NC(=O)CNC(=O)[C@@H](N)CCC(N)=O)C(=O)N[C@@H](CO)C(=O)N1CCC[C@H]1C(=O)N1CCC[C@H]1C(=O)N[C@@H](CCC(N)=O)C(=O)N[C@@H](CO)C(=O)NCC(=O)O [SEQ ID NO: 175] (H-QGQEGHGPASPPQSG-OH; N-terminus assumed),IC50,HLA-DQ2.5 [1],22.1 µM
same,IC50,HLA-DQ8,> 40 µM
"C[C@@H](O)[C@H](NC(=O)[C@@H]1CCCN1C(=O)[C@H](Cc1ccc(O)cc1)NC(=O)[C@H](Cc1ccc(O)cc1)NC(=O)CNC(=O)[C@H](CCC(N)=O)NC(=O)[C@H](CCC(N)=O)NC(=O)CNC(=O)[C@@H](N)CCC(N)=O)C(=O)N[C@@H](CO)C(=O)N1CCC[C@H]1C(=O)N[C@@H](CCC(N)=O)C(=O)N[C@@H](CCC(N)=O)C(=O)N[C@@H](CO)C(=O)NCC(=O)O [P1a, reference compound] (H-QGQQGYYPTSPQQSG-OH; N-terminus assumed)",IC50,HLA-DQ2.5 [1]; [3],29.8 µM
same,IC50,HLA-DQ8; [3],14.2 µM
C[C@H](NC(=O)[C@@H]1CCCN1C(=O)CNC(=O)[C@H](CCCNC(=N)N)NC(=O)CNC(=O)[C@H](CCC(=O)O)NC(=O)[C@H](CCC(N)=O)NC(=O)CNC(=O)[C@@H](N)CCC(N)=O)C(=O)N[C@@H](CO)C(=O)N1CCC[C@H]1C(=O)N[C@@H](CCCNC(=N)N)C(=O)N[C@@H](CCC(N)=O)C(=O)N[C@@H](CO)C(=O)NCC(=O)O [SEQ ID NO: 145] (H-QGQEGRGPASPRQSG-OH),IC50,HLA-DQ7.5,> 40 µM
"C[C@@H](O)[C@H](NC(=O)[C@@H]1CCCN1C(=O)[C@H](Cc1ccc(O)cc1)NC(=O)[C@H](Cc1ccc(O)cc1)NC(=O)CNC(=O)[C@H](CCC(=O)O)NC(=O)[C@H](CCC(N)=O)NC(=O)CNC(=O)[C@@H](N)CCC(N)=O)C(=O)N[C@@H](CO)C(=O)N1CCC[C@H]1C(=O)N[C@@H](CCC(=O)O)C(=O)N[C@@H](CCC(N)=O)C(=O)N[C@@H](CO)C(=O)NCC(=O)O [P1b, reference compound] (H-QGQEGYYPTSPEQSG-OH; N-terminus assumed)",IC50,HLA-DQ2.5 [1]; [3],3.29 µM
same,IC50,HLA-DQ8; [3],3.76 µM
CC(C)C[C@H](NC(=O)CNC(=O)[C@H](CCCNC(=N)N)NC(=O)CNC(=O)[C@H](CCC(=O)O)NC(=O)[C@H](CCC(N)=O)NC(=O)CNC(=O)[C@@H](N)CCC(N)=O)C(=O)N[C@H](C(=O)N[C@@H](CO)C(=O)N1CCC[C@H]1C(=O)N[C@@H](Cc1c[nH]cn1)C(=O)N[C@@H](CCC(N)=O)C(=O)N[C@@H](CO)C(=O)NCC(=O)O)[C@@H](C)O [SEQ ID NO: 144] (H-QGQEGRGLTSPHQSG-OH),IC50,HLA-DQ2.5 [1],> 40 µM
same,IC50,HLA-DQ7.5,39.3 µM
same,IC50,HLA-DQ2.2,> 40 µM
same,IC50,HLA-DQ8,> 40 µM
C[C@@H](O)[C@H](NC(=O)[C@@H]1CCCN1C(=O)[C@H](Cc1ccc(O)cc1)NC(=O)[C@H](Cc1ccc(O)cc1)NC(=O)[C@H](CCCNC(=N)N)NC(=O)[C@@H]1CCCN1C(=O)[C@H](CCC(N)=O)NC(=O)CNC(=O)[C@@H](N)CCC(N)=O)C(=O)N[C@@H](CO)C(=O)N1CCC[C@H]1C(=O)N[C@@H](CCCNC(=N)N)C(=O)N[C@@H](CCC(N)=O)C(=O)N[C@@H](CO)C(=O)NCC(=O)O [P1e] (H-QGQPRYYPTSPRQSG-OH),IC50,HLA-DQ2.5 [1]; [3],33.2 µM
same,IC50,HLA-DQ7.5; [3],19.4 µM
same,IC50,HLA-DQ8; [3],32.5 µM
CC(C)C[C@H](NC(=O)[C@H](CO)NC(=O)[C@@H](NC(=O)[C@@H]1CCCN1C(=O)[C@H](Cc1ccc(O)cc1)NC(=O)[C@H](Cc1ccc(O)cc1)NC(=O)CNC(=O)[C@@H]1CCCN1C(=O)[C@H](CCC(N)=O)NC(=O)CNC(=O)[C@@H](N)CCC(N)=O)[C@@H](C)O)C(=O)N[C@H](C(=O)N[C@@H](CCC(N)=O)C(=O)N[C@@H](CO)C(=O)NCC(=O)O)[C@@H](C)O [SEQ ID NO: 147] (H-QGQPGYYPTSLTQSG-OH),IC50,HLA-DQ2.5 [1],> 40 µM
same,IC50,HLA-DQ7.5,> 40 µM
same,IC50,HLA-DQ2.2,> 40 µM
same,IC50,HLA-DQ8,> 40 µM
CC(C)C[C@H](NC(=O)[C@H](CC(=O)O)NC(=O)[C@H](CCCNC(=N)N)NC(=O)CNC(=O)[C@H](CCC(=O)O)NC(=O)[C@H](CCC(N)=O)NC(=O)CNC(=O)[C@@H](N)CCC(N)=O)C(=O)N[C@H](C(=O)N[C@@H](CO)C(=O)N1CCC[C@H]1C(=O)N[C@@H](CCCCN)C(=O)N[C@@H](CCC(N)=O)C(=O)N[C@@H](CO)C(=O)NCC(=O)O)[C@@H](C)O [SEQ ID NO: 169] (H-QGQEGRDLTSPKQSG-OH),IC50,HLA-DQ2.5 [1],> 40 µM
same,IC50,HLA-DQ7.5,> 40 µM
same,IC50,HLA-DQ2.2,> 40 µM
same,IC50,HLA-DQ8,> 40 µM
NC(=O)CC[C@H](NC(=O)CNC(=O)[C@@H](N)CCC(N)=O)C(=O)N[C@@H](CCC(=O)O)C(=O)N1CCC[C@H]1C(=O)N[C@@H](Cc1ccc(O)cc1)C(=O)NCC(=O)N1CCC[C@H]1C(=O)N[C@@H](CO)C(=O)N[C@@H](CO)C(=O)N1CCC[C@H]1C(=O)N[C@@H](CCC(=O)O)C(=O)N[C@@H](CCC(N)=O)C(=O)N[C@@H](CO)C(=O)NCC(=O)O [SEQ ID NO: 176] (H-QGQEPYGPSSPEQSG-OH),IC50,HLA-DQ7.5,28.6 µM
C[C@@H](O)[C@H](NC(=O)[C@@H]1CCCN1C(=O)[C@H](Cc1ccc(O)cc1)NC(=O)[C@H](Cc1ccc(O)cc1)NC(=O)CNC(=O)[C@H](CO)NC(=O)[C@H](CCC(N)=O)NC(=O)CNC(=O)[C@@H](N)CCC(N)=O)C(=O)N[C@@H](CO)C(=O)N1CCC[C@H]1C(=O)N[C@H](C(=O)N[C@@H](CCC(N)=O)C(=O)N[C@@H](CO)C(=O)NCC(=O)O)[C@@H](C)O [SEQ ID NO: 179] (H-QGQSGYYPTSPTQSG-OH; N-terminus assumed),IC50,HLA-DQ2.5 [1],29.7 µM
same,IC50,HLA-DQ8,> 40 µM
C[C@@H](O)[C@H](NC(=O)[C@@H]1CCCN1C(=O)CNC(=O)[C@H](Cc1ccc(O)cc1)NC(=O)CNC(=O)[C@H](CCC(=O)O)NC(=O)[C@H](CCC(N)=O)NC(=O)CNC(=O)[C@@H](N)CCC(N)=O)C(=O)N[C@@H](CO)C(=O)NCC(=O)N[C@@H](CCC(=O)O)C(=O)N[C@@H](CCC(N)=O)C(=O)N[C@@H](CO)C(=O)NCC(=O)O [SEQ ID NO: 177] (H-QGQEGYGPTSGEQSG-OH; N-terminus assumed),IC50,HLA-DQ2.5 [1],25.3 µM
same,IC50,HLA-DQ8,> 40 µM
C[C@@H](O)[C@H](NC(=O)[C@@H]1CCCN1C(=O)[C@H](Cc1ccc(O)cc1)NC(=O)[C@H](Cc1ccc(O)cc1)NC(=O)CNC(=O)[C@@H]1CCCN1C(=O)[C@H](CCC(N)=O)NC(=O)CNC(=O)[C@@H](N)CCC(N)=O)C(=O)N[C@@H](CO)C(=O)N1CCC[C@H]1C(=O)N[C@@H](Cc1c[nH]cn1)C(=O)N[C@@H](CCC(N)=O)C(=O)N[C@@H](CO)C(=O)NCC(=O)O [SEQ ID NO: 178] (H-QGQPGYYPTSPHQSG-OH; N-terminus assumed),IC50,HLA-DQ2.5 [1],29.4 µM
same,IC50,HLA-DQ8,> 40 µM
QGQSGYYPTSPTQSG-OH [modified 15-mer peptide … (SEQ ID NO: 179)],IC50,HLA-DQ2.5 [2],29.7 µM
QGQEGYGPTSGEQSG-OH [modified 15-mer peptide … (SEQ ID NO: 177)],IC50,HLA-DQ2.5 [2],25.3 µM
QGQEGHGPASPPQSG-OH [modified 15-mer peptide … (SEQ ID NO: 175)],IC50,HLA-DQ2.5 [2],22.1 µM
QGQHGYDPTSLEQSG-OH [modified 15-mer peptide … (SEQ ID NO: 173)],IC50,HLA-DQ2.5 [2],15.9 µM
QGQPGYYPTSPHQSG-OH [modified 15-mer peptide … (SEQ ID NO: 178)],IC50,HLA-DQ2.5 [2],29.4 µM
QGQKGYYPTSPHQSG-OH [modified 15-mer peptide … (SEQ ID NO: 143)],IC50,HLA-DQ2.5 [2],34.4 µM
